Key:
[1] = biological target: T1, His6 PmFREP (PmFREP; PL5-1) (Penaeus monodon, UniProt A0A068LKH5, G184D); experiment: inhibition of human red blood cell (type A) agglutination; format: cell-based; settings: 0.5 uM His6 PmFREP, 3% (v/v) red blood cells; multivalent avidity assay
T1 construct: full length without native signal peptide; XEEL signal peptide (cleaved), N-terminal His6 tag kept; native part starts GTTERTDTA (from primer); Trichoplusia ni cells; disulfide-linked dimer of pentamers

[2] = biological target: T1, His6 PmFREP (PmFREP; PL5-1); experiment: binding to GlcNAc affinity resin and competitive elution, western blot; settings: 100 mM monosaccharide, 20 mM HEPES pH 7.5, 150 mM NaCl, 10 mM CaCl2

T1 sequence (A0A068LKH5 entry or part of it G184D): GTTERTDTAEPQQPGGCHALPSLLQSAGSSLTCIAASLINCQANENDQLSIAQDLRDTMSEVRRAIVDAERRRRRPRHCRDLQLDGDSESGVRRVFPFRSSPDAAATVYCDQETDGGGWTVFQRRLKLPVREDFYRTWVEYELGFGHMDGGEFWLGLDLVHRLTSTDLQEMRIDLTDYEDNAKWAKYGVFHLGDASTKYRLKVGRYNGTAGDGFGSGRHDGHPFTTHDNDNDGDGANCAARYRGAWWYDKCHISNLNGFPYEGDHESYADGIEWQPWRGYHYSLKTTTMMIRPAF

Row | Compound | concentration inhibiting agglutination [1] | binding to GlcNAc affinity resin and competitive elution, western blot [2]
1 | CC(=O)N[C@H]1C(O)O[C@H](CO)[C@@H](O)[C@@H]1O (some centres unmarked) [GlcNAc] | ~ 10 mM | His6 PmFREP can bind GlcNAc as expected for fibrinogen-like lectin
2 | CC(=O)N[C@@H]1C(O)O[C@H](CO)[C@@H](O)[C@@H]1O (some centres unmarked) [ManNAc, N-acetylmannosamine] | 1 mM | 
3 | CC(=O)N[C@H]1[C@H]([C@H](O)[C@H](O)CO)OC(O)(C(=O)O)C[C@@H]1O (some centres unmarked) [Neu5Ac, N-acetylneuraminic acid] | 5 mM | 
4 | CC(=O)N[C@H]1C(O)O[C@H](CO)[C@H](O)[C@@H]1O (some centres unmarked) [GalNAc, N-acetylgalactosamine] | ~ 10 mM | 

Reference: PMC7858579, “Biochemical and structural characterization of a recombinant fibrinogen-related lectin from Penaeus monodon” (Scientific Reports, 2021)
